From patent US20180008573A1, “METHODS AND COMPOSITIONS FOR REDUCING DAMAGE ASSOCIATED WITH OXIDATIVE PHOSPHORYLATION” (USANA Health Sciences, Inc., priority 2016, published 2018)
Marks after values point to notes of the source that are not given here.

Experiments:
[1] = test system: C. elegans strain CB5586; experiment: C. elegans phenotypic lifespan screening (Kaplan-Meier, Log-Rank, Fisher's Exact Test); format: in vivo; details: for restricted mean lifespan, # of Days: DMSO control 13.23
Experimental: Dilutions of the test formulations were applied to individual populations of C. elegans and the lifespan of each population was monitored. Any changes in the lifespan of an individual population compared to a control population were recorded and correlated to the respective test formulation (N356 or N357) and the respective dilution (0.1 mg/ml, 1 mg/ml, and 10 mg/ml).
The […] and N357 formulations were each prepared as individual 100 mg/ml stock solutions in dimethyl sulfoxide (DMSO). Serial dilutions of each stock solution were then prepared at 0.1 mg/ml, 1 mg/ml, and 10 mg/ml in DMSO. Control solutions of DMSO only were also prepared. Synchronous aged adult populations of C.elegans strain CB5586 worms were prepared. The CB5586 strain comprises a pharyngeal GFP (green fluorescent protein) tag and a mutation in the bus-5 gene. The pharyngeal GFP tag allows for fluorescent images of the worm populations to be taken. The mutation in the bus-5 gene causes the loss of normal cuticle antigens that permits the cuticle of the worms to become permeable to the test formulations and allow direct uptake of the test formulations to avoid interaction of the test formulations with protective mechanisms of the gut channel. Each serial dilution of each test formulation was added to a separate population of the prepared worms. The control solutions were also added to separate populations of the prepared worms. The populations of the prepared worms were then maintained on standard nematode growth media (NGM) agar plates at 20° C. with sufficient food (Escherichia coli strain OP-50).
Each worm population was then monitored by fluorescent imaging to determine the number of living and dead worms as a function of time. The fluorescent imaging was analyzed by software that recognized and counted worms based on their fluorescent intensity compared to background fluorescence. […] The ability to distinguish between living and dead worms allowed the number of living worms and cumulative number of dead worms to be monitored against time. Worm populations from a selection of fluorescent images were manually checked to verify that the software had accurately counted the number of living and dead worms.
The counts of the living and dead worms as a function of time were then analyzed for each of the worm populations and used to prepare Kaplan-Meier survival curves and associated statistics for each of the worm populations. […] The median lifespan is shown as the length of time after the last mitotic division that 50% of the test population remains viable when compared to the control population. The maximum lifespan extension is shown as the length of time after the last mitotic division that 5% of the test population remains viable when compared to the control population.
The counts of the living and dead worms as a function of time and the Kaplan-Meier survival curves and the associated statistics were then analyzed for each of the worm populations. The analysis included determining mean and median lifespan. The analysis included a non-parametric test, the Log-Rank test, that compares two survival functions for the overall lifespan assay and provides a reliable p-value summarizing the whole experiment. The analysis also included Fisher's Exact Test that calculated the significance of survival function comparisons at multiple specific time points throughout the experiment, rather than for the overall lifespan. The results of the analysis are shown below in Tables 10-17.
Phenotypic screening was carried out as described in EXAMPLE 2 for various individual compounds of the N357 formulation. […] Alpha lipoic acid was sourced from PureBulk USA as a racemic mix of R and S stereoisomers and was assigned a sample number of N198. Hesperidin was sourced from Sigma Aldrich at ≧80% purity and was assigned a sample number of N347. […]

[2] = target: T1, Nrf2 (Homo sapiens, UniProt Q16236); experiment: Nrf2 agonist reporter assay (native receptor, ARE-luciferase, CV1 cells); format: cell-based; design: comprising either the native receptor (Nrf2 and NF-κB); expressed in transfected cells; host or cells: CV1
T1 sequence (Q16236 1-605): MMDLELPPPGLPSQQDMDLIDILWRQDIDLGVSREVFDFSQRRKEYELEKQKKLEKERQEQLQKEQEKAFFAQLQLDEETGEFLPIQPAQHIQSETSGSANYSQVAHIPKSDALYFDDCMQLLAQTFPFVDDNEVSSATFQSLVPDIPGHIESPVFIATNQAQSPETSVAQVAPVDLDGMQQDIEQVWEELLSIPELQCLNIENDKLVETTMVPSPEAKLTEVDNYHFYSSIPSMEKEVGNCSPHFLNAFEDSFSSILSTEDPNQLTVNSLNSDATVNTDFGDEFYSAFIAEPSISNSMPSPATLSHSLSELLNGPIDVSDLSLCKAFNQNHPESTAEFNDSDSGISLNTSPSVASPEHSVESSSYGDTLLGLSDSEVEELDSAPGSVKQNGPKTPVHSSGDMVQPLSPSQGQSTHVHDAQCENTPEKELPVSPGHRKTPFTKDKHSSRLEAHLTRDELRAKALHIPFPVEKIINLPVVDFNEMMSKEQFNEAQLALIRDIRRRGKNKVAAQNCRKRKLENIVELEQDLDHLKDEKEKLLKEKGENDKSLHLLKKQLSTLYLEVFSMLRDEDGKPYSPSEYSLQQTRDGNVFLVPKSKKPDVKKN

[3] = target: T2, human PPARα (Homo sapiens, UniProt Q07869); experiment: PPARα agonist reporter assay (Gal4 hybrid receptor, luciferase, CHO cells); format: cell-based
T2 construct: expressed in transfected cells; host or cells: CHO
T2 sequence (Q07869 239-466 limits assumed): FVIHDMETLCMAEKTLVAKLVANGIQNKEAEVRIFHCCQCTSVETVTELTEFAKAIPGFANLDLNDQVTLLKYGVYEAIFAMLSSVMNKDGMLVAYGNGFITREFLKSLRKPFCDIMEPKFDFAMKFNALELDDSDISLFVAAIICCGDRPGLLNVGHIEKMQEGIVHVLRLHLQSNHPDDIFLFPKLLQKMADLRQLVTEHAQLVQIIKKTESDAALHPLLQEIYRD

[4] = test system: NF-κB reporter cells; experiment: Live cell multiplex assay in the NF-κB antagonist assay; format: cell-based, human
Experimental: A vehicle control was prepared.

[5] = target: T3, human PPARδ (Homo sapiens, UniProt Q03181); experiment: PPARδ agonist reporter assay (Gal4 hybrid receptor, luciferase, CHO cells); format: cell-based
T3 construct: expressed in transfected cells; host or cells: CHO
T3 sequence (Q03181 211-439 limits assumed): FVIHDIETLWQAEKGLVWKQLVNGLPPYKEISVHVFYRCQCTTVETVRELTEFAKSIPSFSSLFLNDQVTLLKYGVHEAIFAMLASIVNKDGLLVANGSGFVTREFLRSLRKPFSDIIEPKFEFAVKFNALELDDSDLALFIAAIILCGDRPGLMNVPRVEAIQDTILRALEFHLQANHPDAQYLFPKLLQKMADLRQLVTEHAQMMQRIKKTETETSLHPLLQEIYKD

[6] = test system: human NF-κB; experiment: NF-κB antagonist reporter assay (NF-κB GRE-luciferase, HEK293 cells); format: cell-based;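 also: reporter cells carry native NF-κB receptor with firefly luciferase under upstream response elements, with a vehicle control included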
[7] = target: T4, human PPARγ (Homo sapiens, UniProt P37231); experiment: PPARγ agonist reporter assay (Gal4 hybrid receptor, luciferase, CHO cells); format: cell-based
T4 construct: expressed in transfected cells; host or cells: CHO
T4 sequence (P37231 238-503 limits assumed): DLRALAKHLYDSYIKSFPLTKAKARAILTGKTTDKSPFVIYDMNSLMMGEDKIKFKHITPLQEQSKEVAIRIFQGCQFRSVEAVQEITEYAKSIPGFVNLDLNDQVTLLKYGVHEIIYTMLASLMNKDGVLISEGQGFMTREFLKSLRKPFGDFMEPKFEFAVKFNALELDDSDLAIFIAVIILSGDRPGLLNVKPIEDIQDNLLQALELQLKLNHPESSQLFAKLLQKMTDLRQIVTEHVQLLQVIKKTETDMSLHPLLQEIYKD

In the case of `COc1ccc([C@@H]2CC(=O)c3c(O)cc(O[C@@H]4O[C@H](CO[C@@H]5O[C@@H](C)[C@H](O)[C@@H](O)[C@H]5O)[C@@H](O)[C@H](O)[C@H]4O)cc3O2)cc1O` [N347, hesperidin], the “Statistically Significant Result (lifespan vs. DMSO control)” value ([1]; 0.1 mg/ml) is reported as “Statistically significant increase”, the extension of lifespan ([1]; 0.1 mg/ml) is reported as “about 10%” and the “population age in days at 25% mortality” value ([1]; 0.1 mg/ml) is reported as 11 days. For the same compound, the “population age in days at 50% mortality” value ([1]; 0.1 mg/ml) was 16 days, the “population age in days at 75% mortality” value ([1]; 0.1 mg/ml) was 18 days and the “effect on chronological lifespan” value ([1]; 0.1 mg/ml and 10 mg/ml tested) was “significant positive and dose dependent increase of chronological lifespan”. The “% Change in Mean Lifespan” value ([1]; 0.1 mg/ml vs. DMSO control) was “+10%”, the “restricted mean lifespan, # of Days” value ([1]; 0.1 mg/ml) was 14.55 days and the “Statistically Significant Result (lifespan vs. DMSO control)” value ([1]; 10 mg/ml) was “No statistical difference”. For the same compound, the “population age in days at 25% mortality” value ([1]; 10 mg/ml) was 11 days, the “population age in days at 50% mortality” value ([1]; 10 mg/ml) was 14 days and the “population age in days at 75% mortality” value ([1]; 10 mg/ml) was 18 days. The “restricted mean lifespan, # of Days” value ([1]; 10 mg/ml) was 14.19 days.

`COc1cc(/C=C/C(=O)CC(=O)/C=C/c2ccc(O)c(OC)c2)ccc1O` [Curcumin, curcumin] was tested, and the “Nrf2 Fold-Activation” value ([2]; 0.007 μg/ml active ingredient) was 1.6 fold, the “Nrf2 Fold-Activation” value ([2]; 0.022 μg/ml active ingredient) was 1.7 fold and the “Nrf2 Fold-Activation” value ([2]; 0.067 μg/ml active ingredient) was 1.4 fold. The “Nrf2 Fold-Activation” value ([2]; 0.20 μg/ml active ingredient) was 0.96 fold, the “Nrf2 Fold-Activation” value ([2]; 0.60 μg/ml active ingredient) was 1.0 fold and the “Nrf2 Fold-Activation” value ([2]; 1.81 μg/ml active ingredient) was 1.6 fold. The “PPARα Fold-Activation” value ([3]; 0.007 μg/ml active ingredient) was 1.3 fold, the “PPARα Fold-Activation” value ([3]; 0.022 μg/ml active ingredient) was 1.3 fold and the “PPARα Fold-Activation” value ([3]; 0.067 μg/ml active ingredient) was 1.3 fold. For the same compound, the “PPARα Fold-Activation” value ([3]; 0.20 μg/ml active ingredient) was 1.1 fold, the “PPARα Fold-Activation” value ([3]; 0.60 μg/ml active ingredient) was 1.0 fold and the “PPARα Fold-Activation” value ([3]; 1.81 μg/ml active ingredient) was 0.86 fold. For the same compound, the “NF-κB % Live Cell” value ([4]; 0.007 μg/ml active ingredient) was 105%, the “NF-κB % Live Cell” value ([4]; 0.022 μg/ml active ingredient) was 105% and the “NF-κB % Live Cell” value ([4]; 0.067 μg/ml active ingredient) was 106%. The “NF-κB % Live Cell” value ([4]; 0.20 μg/ml active ingredient) was 105%, the “NF-κB % Live Cell” value ([4]; 0.60 μg/ml active ingredient) was 99% and the “NF-κB % Live Cell” value ([4]; 1.81 μg/ml active ingredient) was 97%. For the same compound, the “PPARδ Fold-Activation” value ([5]; 0.007 μg/ml active ingredient) was 1.2 fold, the “PPARδ Fold-Activation” value ([5]; 0.022 μg/ml active ingredient) was 1.2 fold and the “PPARδ Fold-Activation” value ([5]; 0.067 μg/ml active ingredient) was 1.0 fold. The “PPARδ Fold-Activation” value ([5]; 0.20 μg/ml active ingredient) was 1.2 fold, the “PPARδ Fold-Activation” value ([5]; 0.60 μg/ml active ingredient) was 1.3 fold and the “PPARδ Fold-Activation” value ([5]; 1.81 μg/ml active ingredient) was 1.0 fold. For the same compound, the “NF-κB % Inhibition” value ([6]; 0.007 μg/ml active ingredient) was −10%, the “NF-κB % Inhibition” value ([6]; 0.022 μg/ml active ingredient) was −3.4% and the “NF-κB % Inhibition” value ([6]; 0.067 μg/ml active ingredient) was −0.29%. The “NF-κB % Inhibition” value ([6]; 0.20 μg/ml active ingredient) was 22%, the “NF-κB % Inhibition” value ([6]; 0.60 μg/ml active ingredient) was 30% and the “NF-κB % Inhibition” value ([6]; 1.81 μg/ml active ingredient) was 51** %. For the same compound, the “antagonist activity against human NF-κB” value ([6]; at the concentrations tested) was “very low-level antagonist activity”, the “PPARγ Fold-Activation” value ([7]; 0.007 μg/ml active ingredient) was 1.0 fold and the “PPARγ Fold-Activation” value ([7]; 0.022 μg/ml active ingredient) was 1.0 fold. The “PPARγ Fold-Activation” value ([7]; 0.067 μg/ml active ingredient) was 0.95 fold, the “PPARγ Fold-Activation” value ([7]; 0.20 μg/ml active ingredient) was 0.96 fold and the “PPARγ Fold-Activation” value ([7]; 0.60 μg/ml active ingredient) was 0.90 fold. For the same compound, the “PPARγ Fold-Activation” value ([7]; 1.81 μg/ml active ingredient) was 1.1 fold.
